Measurements as given in article PMC9913752, “Proof-of-Concept Study of an Alpha-Fetoprotein-Derived Peptide for the Management of Canine Mammary Cancer” (Animals : an Open Access Journal from MDPI, 2023).
Read-outs that look alike come from different tables or passages of the source. Where a SMILES comes first, the peptide text is derived from it. [ ]: non-standard residue; d: D form. Hyp = O=C(O)[C@@H]1C[C@@H](O)CN1

Columns and labels:
Pharmacokinetics in dogs = assay type: in vivo; details: dog; for AUC / Cmax: plasma LC/MS/MS
Protocol: AFPep (4 mg/kg) was administered by parenteral (i.v., s.c.) as well as oral routes to normal adult mice, dogs, and monkeys. Blood samples were obtained from anesthetized mice via the retroorbital plexus. Blood samples from dogs and monkeys were obtained through an indwelling catheter in the cephalic vein by the veterinarian staff at Albany Medical College. Dogs were awake and alert during sampling; monkeys were under anesthesia, as previously described. For the oral route, gavage was used in mice and monkeys; enteric capsules ([…]) containing AFPep were used and were readily swallowed by dogs. AFPep blood levels were measured using lliquid chromatography and mass spectrometry, as previously described.

[1] = Blood chemistry and hematology after single i.v. dose in dogs; assay type: in vivo, dog; set-up: Bilirubin Conjugated / WBC: unit not given here
Protocol: Monkeys (Macaca mulatta, males) were contractually available through the Animal Resource Facility at Albany Medical College. The monkeys were used to assess pharmacokinetics and tolerability, in anticipation of future human studies. For dogs and monkeys, the full panels of clinical chemistry and hematology parameters were assessed. Monkeys were housed and cared for in accordance with the Guide for the Care and Use of Laboratory Animals (National Research Council, Washington, DC, USA). They were fed a standard Old World monkey diet, enriched with fruits and vegetables and other dietary novelties.

[2] = p.o. enteric capsules (DRcaps), 4 mg/kg per footnote (100 mg/kg orally)
[3] = dogs ~10 kg, 24 h after i.v. 40 mg AFPep, average from 2 dogs
[4] = dogs ~10 kg, 24 h after i.v. 40 mg AFPep, average ± range from 2 dogs, in U/L (unit assumed)
[5] = dogs ~10 kg, 24 h after i.v. 40 mg AFPep, average ± range from 2 dogs, in g/dL (unit assumed)
[6] = dogs ~10 kg, 24 h after i.v. 40 mg AFPep, average ± range from 2 dogs, in mg/dL (unit assumed)
[7] = dogs ~10 kg, 24 h after i.v. 40 mg AFPep, average ± range from 2 dogs, in mmol/L (unit assumed)

With `CC(C)[C@@H]1NC(=O)[C@@H]2C[C@@H](O)CN2C(=O)[C@H]([C@@H](C)O)NC(=O)[C@H](CCCCN)NC(=O)[C@H](CCC(=O)O)NC(=O)[C@H](CC(N)=O)NC(=O)CNC(=O)[C@@H]2C[C@@H](O)CN2C(=O)[C@H](CC(N)=O)NC1=O` [AFPep] (cyclo(EKT[Hyp]VN[Hyp]GN)) as the compound, how does the T1/2 (Pharmacokinetics in dogs; in vivo) read?
The T1/2 was 39 min.

What about the half-life (Pharmacokinetics in dogs; in vivo, iv, 4 mg/kg) of the same compound?
The half-life was 18 min.

What about the half-life (Pharmacokinetics in dogs; in vivo, sc, 4 mg/kg) of the same compound?
The half-life was 65 min.

What about the AUC (Pharmacokinetics in dogs; [2]) of the same compound?
The AUC was 14 min(µg/mL).

What about the Cmax (Pharmacokinetics in dogs; [2]) of the same compound?
The Cmax was 100 ng/mL.

What about the Cmax (Pharmacokinetics in dogs; iv, i.v., 4 mg/kg, non-linear regression, first-order PK model, read-out: Cmax) of the same compound?
The Cmax was 35000 ng/mL.

And the AUC (Pharmacokinetics in dogs; iv, i.v., 4 mg/kg, read-out: AUC (converted))?
Its AUC is 15000 ng·h/mL.

What about the AUC (Pharmacokinetics in dogs; sc, s.c., 4 mg/kg, read-out: AUC (converted)) of the same compound?
The AUC was 13500 ng·h/mL.

And the Cmax (Pharmacokinetics in dogs; sc, s.c., 4 mg/kg, read-out: Cmax)?
The Cmax was 5800 ng/mL.

And the liver enzymes ([1]; 4 mg/kg i.v., dogs, no anesthesia, mild manual restraint)?
The liver enzymes was “No such elevations in liver enzymes”.

What about the “changes to clinical chemistry and hematology values” ([1]; 4 mg/kg i.v., normal beagle dogs) of the same compound?
The value was “In no case did exposure to AFPep result in significant changes”.

And the “Bilirubin Conjugated” value [1, 3]?
Its value is 0.

What about the Total Bilirubin [1, 3] of the same compound?
The Total Bilirubin was 0.1 mg/dL.

What about the WBC ([1]; dogs ~10 kg, 24 h after i.v. 40 mg AFPep, average ± range from 2 dogs) of the same compound?
The WBC was 7.0 ± 3.

What about the Platelet ([1]; dogs ~10 kg, 24 h after i.v. 40 mg AFPep, average ± range from 2 dogs, in 10^3/µL (unit assumed)) of the same compound?
The Platelet was 274 ± 21.

What about the RBC ([1]; dogs ~10 kg, 24 h after i.v. 40 mg AFPep, average ± range from 2 dogs, in 10^6/µL (unit assumed)) of the same compound?
The RBC was 6.9 ± 1.

What about the HCT ([1]; dogs ~10 kg, 24 h after i.v. 40 mg AFPep, average ± range from 2 dogs, in % (unit assumed)) of the same compound?
Its HCT is 46 ± 1.5.

And the ALP [1, 4]?
The ALP was 33 ± 2.

And the ALT [1, 4]?
Its ALT is 16 ± 1.

What about the AST [1, 4] of the same compound?
The AST was 20 ± 1.

What about the “Creatine Kinase” value [1, 4] of the same compound?
Its value is 135 ± 2.7.

And the GGT [1, 4]?
Its GGT is 3 ± 1.

And the MCV ([1]; dogs ~10 kg, 24 h after i.v. 40 mg AFPep, average ± range from 2 dogs, in fL (unit assumed))?
Its MCV is 68 ± 0.8.

And the Albumin [1, 5]?
Its Albumin is 3.2 ± 0.1.

What about the Globulin [1, 5] of the same compound?
The Globulin was 2.6 ± 0.1.

What about the HGB [1, 5] of the same compound?
Its HGB is 15.9 ± 1.

And the “Total Protein” value [1, 5]?
Its value is 5.8 ± 0.1.

What about the BUN [1, 6] of the same compound?
The BUN was 13.2 ± 2.

And the Calcium [1, 6]?
Its Calcium is 10.3 ± 0.4.

And the Cholesterol [1, 6]?
Its Cholesterol is 171 ± 2.

What about the Creatinine [1, 6] of the same compound?
The Creatinine was 0.7 ± 0.1.

And the Glucose [1, 6]?
Its Glucose is 93 ± 9.

What about the Phosphorous [1, 6] of the same compound?
The Phosphorous was 4.6 ± 0.2.

What about the “Bicarbonate TCO2” value [1, 7] of the same compound?
The value was 21 ± 1.

And the Chloride [1, 7]?
Its Chloride is 112 ± 1.

And the Potassium [1, 7]?
The Potassium was 4.7 ± 0.1.

What about the Sodium [1, 7] of the same compound?
Its Sodium is 146 ± 2.

And the MCH ([1]; dogs ~10 kg, 24 h after i.v. 40 mg AFPep, average ± range from 2 dogs, in pg (unit assumed))?
The MCH was 23.2 ± 1.
